Laboratory results from patent publication US20240199644A1, “Fused Ring Derivatives Useful as KRAS G12D Inhibitors” (JACOBIO PHARMACEUTICALS CO., LTD., priority 2021, published 2024).

Key:
[1] = biological target: GDP-loaded HIS-KRAS(G12D, aa 1-169) (Homo sapiens (Human), UniProt P01116, G12D); experiment: SOS1 catalyzed nucleotide exchange assay; assay type: biochemical; conditions: TR-FRET; 1.5 nM GDP-loaded HIS-KRAS(G12D), 0.5 μM SOS1 ExD, 4 hours at 25° C.
Procedure: GDP-loaded HIS-KRAS(G12D, aa 1-169) was pre-incubated with a compound in the presence of 10 nM GDP in a 384-well plate (Greiner) for 15 min, then purified SOS1 ExD(Flag tag, aa 564-1049), BODIPY™ FL GTP (Invitrogen) and MAb(monoclonal antibody) Anti 6HIS-Tb cryptate Gold (Cisbio) were added to the assay wells (Final concentration: 1.5 nM GDP-loaded HIS-KRAS(G12D), 5 nM GDP, 0.5 μM SOS1 ExD, 80 nM BODIPY™ FL GTP, 52.5 ng/mL MAb Anti 6HIS-Tb cryptate Gold) and incubated for 4 hours at 25° C. Wells containing same percent of DMSO served as vehicle control, and wells without KRAS served as low control. TR-FRET signals were read on Tecan Spark multimode microplate reader. The parameters were F486: Excitation 340 nm, Emission 486 nm, Lag time 100 μs, Integration time 200 μs; F515: Excitation 340 nm, Emission 515 nm, Lag time 100 μs, Integration time 200 μs. TR-FRET ratios for each individual wells were calculated by equation: TR-FRET ratio=(Signal F515/Signal F486)*10000. The percent of activation of compounds treated wells were normalizedbetween vehicle control and low control. Then the data were analyzed using a 4-parameter logistic model to calculate ICso values.

[2] = biological target: GppNp-loaded HIS-KRAS(G12D, aa 1-169) / cRAF RBD (Homo sapiens (Human), UniProt P01116, G12D); experiment: GTP-KRAS and cRAF interaction assay; assay type: biochemical; conditions: HTRF; 2.0 nM GppNp-loaded HIS-KRAS(G12D), 35 nM cRAF RBD, 100 μM GTP, 2 hours at 25° C.
Sequence of GppNp-loaded HIS-KRAS(G12D, aa 1-169) / cRAF RBD (P01116 other isoform, or with tags, fused parts or gaps G12D): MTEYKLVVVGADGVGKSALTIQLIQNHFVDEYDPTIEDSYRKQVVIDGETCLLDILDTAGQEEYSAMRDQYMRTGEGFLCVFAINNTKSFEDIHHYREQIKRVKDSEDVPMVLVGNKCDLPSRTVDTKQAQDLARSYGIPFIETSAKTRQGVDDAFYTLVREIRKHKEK
Procedure: GppNp-loaded HIS-KRAS(G12D, aa 1-169) was pre-incubated with a compound in the presence of 200 μM GTP in a 384-well plate (Greiner) for 15 min, then cRAF RBD(GST tag, aa 50-132, CreativeBioMart), MAb Anti GST-d2 (Cisbio) and MAb Anti 6HIS-Tb cryptate Gold (Cisbio) were added to the assay wells (Final concentration: 2.0 nM GppNp-loaded HIS-KRAS(G12D), 100 μM GTP, 35 nM cRAF RBD, 1 μg/mL MAb Anti GST-d2, 52.5 ng/mL MAb Anti 6HIS-Tb cryptate Gold) and incubated for 2 hours at 25° C. Wells containing same percent of DMSO served as vehicle control, and wells without KRAS served as low control. HTRF signals were read on Tecan Spark multimode microplate reader and HTRF ratios were calculated under manufacturer's instructions. The percent of activation of compounds treated wells were normalized between vehicle control and low control. Then the data were analyzed using a 4-parameter logistic model to calculate IC50 values.

Sequence of GDP-loaded HIS-KRAS(G12D, aa 1-169) (P01116 other isoform, or with tags, fused parts or gaps G12D): as above

Compound: C#Cc1c(F)ccc2cc(O)cc(-c3c(Cl)c4c5c(nc(OC[C@@]67CCCN6C[C@H](F)C7)nc5c3F)N3C[C@H]5CC[C@H](N5)[C@H]3CO4)c12 (atropisomer, axis not shown) [Compound 12]
- IC50 [1]: 35.8 nM
- IC50 [2]: 154 nM

Compound: C#Cc1c(F)ccc2cc(O)cc(-c3c(Cl)c4c5c(nc(OC[C@@]67CCCN6C[C@H](F)C7)nc5c3F)N3C[C@H]5CC[C@H](N5)[C@H]3CO4)c12 (atropisomer, axis not shown) [Compound 13]
- IC50 [1]: 0.691 nM
- IC50 [2]: 4.8 nM

Compound: CN(C)CC1(COc2nc3c4c(c(Cl)c(-c5cc(O)cc6ccccc56)cc4n2)OC[C@@H]2CNCCN32)CC1 [Compound 1]
- IC50 [1]: 3860 nM
- IC50 [2]: 31400 nM

Compound: CN(C)CC1(COc2nc3c4c(c(Cl)c(-c5cc(O)cc6ccccc56)cc4n2)OC[C@H]2CNCCN32)CC1 [Compound 2]
- IC50 [1]: 880 nM
- IC50 [2]: 23300 nM

Compound: Oc1cc(-c2cc3nc(OC[C@@]45CCCN4C[C@H](F)C5)nc4c3c(c2Cl)OC[C@H]2CNCCN42)c2ccccc2c1 [Compound 3]
- IC50 [1]: 294 nM
- IC50 [2]: 11600 nM

Compound: C#Cc1cccc2cc(O)cc(-c3cc4c5c(nc(OCC6(CN7CCOCC7)CC6)nc5c3F)N3C[C@H]5CC[C@H](N5)[C@@H]3CO4)c12 [Compound 4]
- IC50 [1]: 2.5 nM
- IC50 [2]: 378 nM

Compound: C#Cc1cccc2cc(O)cc(-c3cc4c5c(nc(OCC6(CN7CCOCC7)CC6)nc5c3F)N3C[C@H]5CC[C@H](N5)[C@H]3CO4)c12 [Compound 5]
- IC50 [1]: 1.16 nM
- IC50 [2]: 20.5 nM

Compound: C#Cc1c(F)ccc2cc(O)cc(-c3nc4c5c(nc(OC[C@@]67CCCN6C[C@H](F)C7)nc5c3F)N3C[C@H]5CC[C@H](N5)[C@H]3CO4)c12 [Compound 6]
- IC50 [1]: 0.23 nM
- IC50 [2]: 3.9 nM

Compound: C#Cc1c(F)ccc2cc(O)cc(-c3nc4c5c(nc(OCC6(CN7CCOCC7)CC6)nc5c3F)N3C[C@H]5CC[C@H](N5)[C@H]3CO4)c12 [Compound 7]
- IC50 [1]: 0.659 nM
- IC50 [2]: 9.8 nM

Compound: C#Cc1c(F)ccc2cc(O)cc(-c3nc4c5c(nc(OC[C@@]67CCCN6C[C@H](F)C7)nc5c3F)N3C[C@@H]5CC[C@@H](N5)[C@@H]3CO4)c12 [Compound 8]
- IC50 [1]: 32.6 nM
- IC50 [2]: 280 nM

Compound: C#Cc1c(F)ccc2cc(O)cc(-c3nc4c5c(nc(OC[C@@]67CCCN6C[C@H](F)C7)nc5c3F)N3C[C@@H]5CC[C@@H](N5)[C@H]3CO4)c12 [Compound 9]
- IC50 [1]: 81 nM
- IC50 [2]: 2240 nM

Compound: C#Cc1c(F)ccc2cc(O)cc(-c3cc4c5c(nc(OC[C@@]67CCCN6C[C@H](F)C7)nc5c3F)N3C[C@H]5CC[C@H](N5)[C@H]3CO4)c12 [Compound 10]
- IC50 [1]: 0.452 nM
- IC50 [2]: 5.4 nM

Compound: C#Cc1cccc2cc(O)cc(-c3cc4nc(OC[C@@]56CCCN5C[C@H](F)C6)nc5c4c(c3Cl)OC[C@@H]3[C@@H]4CC[C@H](CN53)N4)c12 [Compound 11]
- IC50 [1]: 7.24 nM
- IC50 [2]: 184 nM

Compound: C#Cc1c(F)ccc2cc(O)cc(-c3cc4c5c(nc(OCC6(CN7CCOCC7)CC6)nc5c3F)N3C[C@H]5CC[C@H](N5)[C@H]3CO4)c12 [Compound 14]
- IC50 [1]: 1.15 nM
- IC50 [2]: 9.2 nM

Compound: C#Cc1cccc2cc(O)cc(-c3cc4c5c(nc(OCC6(CN7CCOCC7)CC6)nc5c3F)N3[C@@H]5CN[C@@H](C5)[C@@H]3CO4)c12 [Compound 15]
- IC50 [1]: 11 nM
- IC50 [2]: 251 nM

Compound: C#Cc1cccc2cc(O)cc(-c3cc4c5c(nc(OCC6(CN7CCOCC7)CC6)nc5c3F)N3[C@H]5CN[C@H](C5)[C@@H]3CO4)c12 [Compound 16]
- IC50 [1]: 86.1 nM
- IC50 [2]: 660 nM
